Assay results published in patent US10570179B2, “Substituted urea depsipeptide analogs as activators of the CLPP endopeptidase” (priority 2016, dated 2020).
Converted amounts (≈) assume the structure as drawn. Read-outs that look alike come from different tables or passages of the source. Numbered stars: 1 amine (or outer) side, 2 acyl side, 3 side chain; on linkers, the order of the positions; unused ones are H or OH. Bridge positions count the residues as written; N and C are the ends. Square brackets hold non-standard residues; d marks the D form. Peptide text beside a SMILES is read from it. * marks the point of attachment. Morpholine(3S-CO) = O=C(O)[C@@H]1COCCN1; Phe(3-Me) = Cc1cccc(C[C@H](N)C(=O)O)c1; Pro(4R-Me) = C[C@H]1CN[C@H](C(=O)O)C1; Hyp = O=C(O)[C@@H]1C[C@@H](O)CN1; NH(4-Et-phenyl) = CCc1ccc(N*)cc1; NH(4-Me-phenyl) = Cc1ccc(N*)cc1; aThr = C[C@H](O)[C@H](N)C(=O)O; Pip = O=C(O)[C@@H]1CCCCN1; CO = O=C([*:1])[*:2]

Columns and labels:
[1] = biological target: T1, Sa-ClpP (Staphylococcus aureus, UniProt Q2G036); assay: ADEP displacement fluorescence polarization assay; assay type: binding, S. aureus; conditions: displacement of FP probe ADEP 2591 from Sa-ClpP
T1 construct: made in house; host or cells: E. coli BL21 (DE3)
How it was run: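 Master mix of 15 μM Sa-ClpP and 50 nM TAMRA-labelled ADEP 2591 probe in Tris-HCl pH 8.0, 2% DMSO, was pre-equilibrated 1 h at RT, then compounds were added and incubated 120 min at RT. Polarization (ex 530, em 579 nm, mP) was normalised to 200 μM ADEP 2378 and DMSO controls and fitted by four-parameter regression, in triplicate.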

[2] = Microsomal metabolic stability; assay type: in vitro ADME, mouse
How it was run: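 CD-1 mouse liver microsomes (0.6381 mg/mL protein microsomal solution, 0.1 M potassium phosphate pH 7.4 with EDTA) were incubated with compound and an NADPH-regenerating system at 37 °C, in triplicate. Acetonitrile/warfarin quench at 0, 15, 30, 60, 120 and 240 min, then LCMS. Half-life came from a first-order least-squares fit.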

[3] = tested on: S. aureus ATCC 29213; assay: Minimal inhibitory concentration, microbroth dilution; assay type: cell-based; conditions: Staphylococcus aureus
How it was run: (§1)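 MIC is recorded by eye as the lowest drug concentration that stops bacterial growth. Compound is serially diluted twofold in broth, starting at 200 μM final, and bacteria are added at roughly 10^5 cfu/mL. Incubation runs overnight at 37 °C under aerobic conditions, per CLSI guidance.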

[4] = tested on: S. aureus USA 300; assay: as above; assay type: cell-based; conditions: Staphylococcus aureus
How it was run: as §1

[5] = tested on: MRSA NRS70; assay: as above; assay type: cell-based; conditions: Staphylococcus aureus
How it was run: as §1

[6] = tested on: E. faecails; assay: as above; assay type: cell-based; conditions: Enterococcus faecalis
How it was run: as §1

[7] = ATCC29213, MIC, read-out: Minimal Inhibitory Concentrations (μM) S. aureus ATCC 29213
[8] = USA300, MIC, read-out: Minimal Inhibitory Concentrations (μM) S. aureus USA 300
[9] = MIC, read-out: Minimal Inhibitory Concentrations (μM) MRSA NRS70
[10] = MIC, read-out: Minimal Inhibitory Concentrations (μM) E. faecails

T1 sequence (Q2G036 whole entry): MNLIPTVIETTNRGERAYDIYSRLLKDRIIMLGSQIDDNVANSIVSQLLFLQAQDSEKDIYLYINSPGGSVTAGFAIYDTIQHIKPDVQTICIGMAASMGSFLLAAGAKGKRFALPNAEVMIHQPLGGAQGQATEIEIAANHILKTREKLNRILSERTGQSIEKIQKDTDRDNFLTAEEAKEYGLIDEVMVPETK

Row | SMILES | IC50 [1] | Mouse ([2]; CD-1, mouse, pH 7.4) | MIC [3, 7] | MIC [4, 8] | MIC [5, 9] | MIC [6, 10] | Mouse ([2]; microsomal metabolic stability half-life, mouse liver microsomes) | MIC ([3]; ATCC29213, read-out: Minimal Inhibitory Concentrations (μM) S. aureus ATCC 29213, MIC) | MIC ([4]; USA300, read-out: Minimal Inhibitory Concentrations (μM) S. aureus USA 300, MIC) | MIC ([5]; read-out: Minimal Inhibitory Concentrations (μM) MRSA NRS70, MIC) | MIC ([6]; read-out: Minimal Inhibitory Concentrations (μM) E. faecails, MIC)
1 | Cc1cccc(C[C@H](NC(=O)Nc2ccc3c(c2)OCO3)C(=O)N[C@H]2COC(=O)[C@@H]3C[C@@H](C)CN3C(=O)[C@H](C)NC(=O)[C@@H]3CCCCN3C(=O)[C@@H]3CCCN3C2=O)c1 [Compound 23, (S)-2-(3-(BENZO[D][1,3]DIOXOL-5-YL)UREIDO)-N-((2R,6S,8AS,14AS,20S,23AS)-2,6-DIMETHYL-5,8,14,19,23-PENTAOXOOCTADECAHYDRO-1H,5H,14H,19H-PYRIDO[2,1-I]DIPYRROLO[2,1-C:2′,1′-L][1]OXA[4,7,10,13]TETRAAZACYCLOHEXADECIN-20-YL)-3-(M-TOLYL)PROPANAMIDE] | 1.96 ± 0.12 µM | 35.8 ± 14.7 h | 1.25 µM (≈ 1 µg/mL) | 1.25 µM (≈ 1 µg/mL) | 0.625 µM (≈ 0.501 µg/mL) | 0.625 µM (≈ 0.501 µg/mL) |  |  |  |  | 
2 | CCc1ccc(NC(=O)N[C@@H](Cc2cccc(C)c2)C(=O)N[C@@H]2C(=O)N3C[C@H](O)C[C@H]3C(=O)N3CCOC[C@H]3C(=O)N[C@@H](C)C(=O)N3C[C@H](C)C[C@H]3C(=O)O[C@H]2C)cc1 [Compound 24, (S)-2-(3-(4-ETHYLPHENYL)UREIDO)-N-((6AS,8R,12S,13S,15AS,17R,21S,23AS)-8-HYDROXY-13,17,21-TRIMETHYL-6,11,15,20,23-PENTAOXOOCTADECAHYDRO-6H,11H,15H-[1,4]OXAZINO[3,4-I]DIPYRROLO[2,1-C:2′,1′-L][1]OXA[4,7,10,13]TETRAAZACYCLOHEXADECIN-12-YL)-3-(M-TOLYL)PROPANAMIDE] ({NH(4-Et-phenyl)-CO}-[Phe(3-Me)][aThr][Hyp][Morpholine(3S-CO)]A[Pro(4R-Me)]; ester 2-C) | 2.31 ± 0.2 µM | 1.03 ± 0.05 h | 0.313 µM (≈ 0.256 µg/mL) | 0.313 µM (≈ 0.256 µg/mL) | 0.156 µM (≈ 0.128 µg/mL) | 0.156 µM (≈ 0.128 µg/mL) |  |  |  |  | 
3 | CCc1ccc(NC(=O)N[C@@H](Cc2cccc(C)c2)C(=O)N[C@@H]2C(=O)N3C[C@H](O)C[C@H]3C(=O)N3CCCC[C@H]3C(=O)N[C@@H](C)C(=O)N3C[C@H](C)C[C@H]3C(=O)O[C@H]2C)cc1 [Compound 25, (S)-2-(3-(4-ETHYLPHENYL)UREIDO)-N-((2R,6S,8AS,14AS,16R,20S,21S,23AS)-16-HYDROXY-2,6,21-TRIMETHYL-5,8,14,19,23-PENTAOXOOCTADECAHYDRO-1H,5H,14H,19H-PYRIDO[2,1-I]DIPYRROLO[2,1-C:2′,1′-L][1]OXA[4,7,10,13]TETRAAZACYCLOHEXADECIN-20-YL)-3-(M-TOLYL)PROPANAMIDE] ({NH(4-Et-phenyl)-CO}-[Phe(3-Me)][aThr][Hyp][Pip]A[Pro(4R-Me)]; ester 2-C) | 4.76 ± 0.33 µM | 2.35 ± 0.27 h | 0.156 µM (≈ 0.127 µg/mL) | 0.313 µM (≈ 0.255 µg/mL) | 0.156 µM (≈ 0.127 µg/mL) | 0.156 µM (≈ 0.127 µg/mL) |  |  |  |  | 
4 | Cc1ccc(NC(=O)N[C@@H](Cc2cccc(C)c2)C(=O)N[C@@H]2C(=O)N3C[C@H](O)C[C@H]3C(=O)N3CCCC[C@H]3C(=O)N[C@@H](C)C(=O)N3C[C@H](C)C[C@H]3C(=O)O[C@H]2C)cc1 [Compound 26, (S)—N-((2R,6S,8AS,14AS,16R,20S,21S,23AS)-16-HYDROXY-2,6,21-TRIMETHYL-5,8,14,19,23-PENTAOXOOCTADECAHYDRO-1H,5H,14H,19H-PYRIDO[2,1-I]DIPYRROLO[2,1-C:2′,1′-L][1]OXA[4,7,10,13]TETRAAZACYCLOHEXADECIN-20-YL)-3-(M-TOLYL)-2-(3-(P-TOLYL)UREIDO)PROPANAMIDE] ({NH(4-Me-phenyl)-CO}-[Phe(3-Me)][aThr][Hyp][Pip]A[Pro(4R-Me)]; ester 2-C) | 4.26 ± 0.16 µM |  |  |  |  |  | 2.49 ± 0.35 h | 0.313 µM (≈ 0.251 µg/mL) | 2.5 µM (≈ 2 µg/mL) | 0.313 µM (≈ 0.251 µg/mL) | 5 µM (≈ 4.01 µg/mL)
